Assay results taken from PubChem BioAssay (NCI).
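GI50 = concentration required for 50% inhibition of growth. TGI: concentration producing complete growth inhibition.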

What was measured:
Experiment in all cases: NCI tumour cell line growth inhibition, 384-well format
NCI-H322M lung = tested on: NCI-H322M lung
NCI-H460 NSCLC = tested on: NCI-H460 NSCLC
NCI-H522 lung = tested on: NCI-H522 lung
NCI/ADR-RES ovarian = tested on: NCI/ADR-RES ovarian
OVCAR-3 ovarian = tested on: OVCAR-3 ovarian
OVCAR-4 ovarian = tested on: OVCAR-4 ovarian
OVCAR-5 ovarian = tested on: OVCAR-5 ovarian
OVCAR-8 ovarian = tested on: OVCAR-8 ovarian
PC-3 prostate = tested on: PC-3 prostate
RPMI-8226 leukemia = tested on: RPMI-8226 leukemia
RXF 393 renal = tested on: RXF 393 renal
SF-268 CNS = tested on: SF-268 CNS
SF-295 CNS = tested on: SF-295 CNS
SF-539 CNS = tested on: SF-539 CNS
SK-MEL-2 melanoma = tested on: SK-MEL-2 melanoma
SK-MEL-28 melanoma = tested on: SK-MEL-28 melanoma
SK-MEL-5 melanoma = tested on: SK-MEL-5 melanoma
SK-OV-3 ovarian = tested on: SK-OV-3 ovarian
SN12C renal = tested on: SN12C renal
SNB-19 CNS = tested on: SNB-19 CNS
SNB-75 CNS = tested on: SNB-75 CNS
SR leukemia = tested on: SR leukemia
SW-620 colon = tested on: SW-620 colon
T-47D breast = tested on: T-47D breast
TK-10 renal = tested on: TK-10 renal
U251 glioblastoma = tested on: U251 glioblastoma
UACC-257 melanoma = tested on: UACC-257 melanoma
UACC-62 melanoma = tested on: UACC-62 melanoma

Work on `O=P(O)(O)C(O)(Cn1ccnc1)P(=O)(O)O` yielded a GI50 (NCI-H322M lung) greater than 100 µM, a TGI (NCI-H322M lung) greater than 100 µM and a GI50 (NCI-H460 NSCLC) greater than 100 µM. The TGI (NCI-H460 NSCLC) was greater than 100 µM, the GI50 (NCI-H522 lung) was greater than 100 µM and the TGI (NCI-H522 lung) was greater than 100 µM. The GI50 (NCI/ADR-RES ovarian) was greater than 100 µM, the TGI (NCI/ADR-RES ovarian) was greater than 100 µM and the GI50 (OVCAR-3 ovarian) was greater than 100 µM. It also gave a TGI (OVCAR-3 ovarian) greater than 100 µM, a GI50 (OVCAR-4 ovarian) greater than 100 µM and a TGI (OVCAR-4 ovarian) greater than 100 µM. The GI50 (OVCAR-5 ovarian) was greater than 100 µM, the TGI (OVCAR-5 ovarian) was greater than 100 µM and the GI50 (OVCAR-8 ovarian) was greater than 100 µM. It also gave a TGI (OVCAR-8 ovarian) greater than 100 µM, a GI50 (PC-3 prostate) greater than 100 µM and a TGI (PC-3 prostate) greater than 100 µM. For the same compound, the GI50 (RPMI-8226 leukemia) was greater than 100 µM, the TGI (RPMI-8226 leukemia) was greater than 100 µM and the GI50 (RXF 393 renal) was greater than 100 µM. The TGI (RXF 393 renal) was greater than 100 µM, the GI50 (SF-268 CNS) was greater than 100 µM and the TGI (SF-268 CNS) was greater than 100 µM. For the same compound, the GI50 (SF-295 CNS) was greater than 100 µM, the TGI (SF-295 CNS) was greater than 100 µM and the GI50 (SF-539 CNS) was greater than 100 µM. For the same compound, the TGI (SF-539 CNS) was greater than 100 µM, the GI50 (SK-MEL-2 melanoma) was greater than 100 µM and the TGI (SK-MEL-2 melanoma) was greater than 100 µM. The GI50 (SK-MEL-28 melanoma) was greater than 100 µM, the TGI (SK-MEL-28 melanoma) was greater than 100 µM and the GI50 (SK-MEL-5 melanoma) was greater than 100 µM. It also gave a TGI (SK-MEL-5 melanoma) greater than 100 µM, a GI50 (SK-OV-3 ovarian) greater than 100 µM and a TGI (SK-OV-3 ovarian) greater than 100 µM. The GI50 (SN12C renal) was greater than 100 µM, the TGI (SN12C renal) was greater than 100 µM and the GI50 (SNB-19 CNS) was greater than 100 µM. The TGI (SNB-19 CNS) was greater than 100 µM, the GI50 (SNB-75 CNS) was greater than 100 µM and the TGI (SNB-75 CNS) was greater than 100 µM. It also gave a GI50 (SR leukemia) greater than 100 µM, a TGI (SR leukemia) greater than 100 µM and a GI50 (SW-620 colon) greater than 100 µM. The TGI (SW-620 colon) was greater than 100 µM, the GI50 (T-47D breast) was greater than 100 µM and the TGI (T-47D breast) was greater than 100 µM. The GI50 (TK-10 renal) was greater than 100 µM, the TGI (TK-10 renal) was greater than 100 µM and the GI50 (U251 glioblastoma) was greater than 100 µM. It also gave a TGI (U251 glioblastoma) greater than 100 µM, a GI50 (UACC-257 melanoma) greater than 100 µM and a TGI (UACC-257 melanoma) greater than 100 µM. The GI50 (UACC-62 melanoma) was greater than 100 µM and the TGI (UACC-62 melanoma) was greater than 100 µM.
